Tests used:
[1] = biological target: ATP-dependent translocase ABCB1 (Homo sapiens, UniProt P08183); experiment: Inhibition of P-glycoprotein in human LCC6MDR cells assessed as reversal fold by measuring reduction in paclitaxel by measuring paclitaxel IC50 at 1 uM after 5 days by Cell Titer-Glo luminescence assay
[2] = Inhibition of MRP1 in human 2008/MRP1 cells assessed as reversal of doxorubicin resistance by measuring doxorubicin IC50 at 1 uM after 5 days by Cell Titer-Glo luminescence assay

Sequence of ATP-dependent translocase ABCB1 (P08183 whole entry): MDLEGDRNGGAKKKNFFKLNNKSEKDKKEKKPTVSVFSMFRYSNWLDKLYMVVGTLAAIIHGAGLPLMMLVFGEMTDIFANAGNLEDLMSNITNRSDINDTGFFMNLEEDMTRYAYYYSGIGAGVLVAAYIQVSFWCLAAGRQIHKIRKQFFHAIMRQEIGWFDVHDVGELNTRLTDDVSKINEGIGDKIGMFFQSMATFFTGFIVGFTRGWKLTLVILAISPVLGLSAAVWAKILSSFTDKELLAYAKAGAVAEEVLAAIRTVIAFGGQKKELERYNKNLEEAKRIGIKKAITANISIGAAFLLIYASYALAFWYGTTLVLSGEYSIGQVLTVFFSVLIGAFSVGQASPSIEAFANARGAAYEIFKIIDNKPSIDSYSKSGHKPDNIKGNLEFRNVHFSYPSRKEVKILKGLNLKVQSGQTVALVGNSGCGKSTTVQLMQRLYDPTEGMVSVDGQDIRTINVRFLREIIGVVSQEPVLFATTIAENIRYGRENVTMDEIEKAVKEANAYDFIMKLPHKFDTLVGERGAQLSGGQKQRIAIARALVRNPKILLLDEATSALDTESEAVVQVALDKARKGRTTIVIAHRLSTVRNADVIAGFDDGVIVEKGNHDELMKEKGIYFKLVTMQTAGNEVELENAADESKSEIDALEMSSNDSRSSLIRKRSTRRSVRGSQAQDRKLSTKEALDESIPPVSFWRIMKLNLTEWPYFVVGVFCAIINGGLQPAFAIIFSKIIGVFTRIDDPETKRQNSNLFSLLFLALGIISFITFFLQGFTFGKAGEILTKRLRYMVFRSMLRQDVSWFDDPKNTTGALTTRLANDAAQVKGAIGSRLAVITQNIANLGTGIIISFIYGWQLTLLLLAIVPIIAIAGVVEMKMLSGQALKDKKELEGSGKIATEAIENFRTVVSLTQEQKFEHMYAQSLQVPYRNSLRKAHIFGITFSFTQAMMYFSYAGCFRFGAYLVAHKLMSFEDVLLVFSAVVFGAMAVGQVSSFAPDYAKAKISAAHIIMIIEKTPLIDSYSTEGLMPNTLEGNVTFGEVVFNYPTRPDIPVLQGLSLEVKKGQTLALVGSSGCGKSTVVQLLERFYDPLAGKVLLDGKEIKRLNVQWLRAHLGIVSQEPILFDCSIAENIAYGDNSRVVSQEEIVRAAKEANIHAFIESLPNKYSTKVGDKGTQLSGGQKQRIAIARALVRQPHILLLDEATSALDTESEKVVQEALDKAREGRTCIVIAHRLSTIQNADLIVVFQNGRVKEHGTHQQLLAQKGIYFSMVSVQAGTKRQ

For COc1cc(OC)c2c(c1)O[C@H](c1ccc(OC)c(OC)c1)[C@@H](OC(=O)c1ccc(F)c(NC(=O)c3cc(OC)c(OC)c(OC)c3)c1)C2, the “IC50” value [1] was 1.8 nM and the IC50 [2] was 354 nM.
For COc1cc(OC)c2c(c1)O[C@H](c1ccc(OC)c(OC)c1)[C@H](OC(=O)c1ccc(F)c(NC(=O)c3cc(OC)c(OC)c(OC)c3)c1)C2, the “IC50” value [1] was 2.2 nM and the IC50 [2] was 341 nM.
